According to ChEMBL document CHEMBL5465560, “Selectivity Literature for EUbOPEN Chemogenomic Library” (2024):

Columns and labels:
[1] = target: T1, Serine/threonine-protein kinase STK11 (Homo sapiens) (UniProt Q15831); settings: at 10 µM
T1 sequence (whole entry): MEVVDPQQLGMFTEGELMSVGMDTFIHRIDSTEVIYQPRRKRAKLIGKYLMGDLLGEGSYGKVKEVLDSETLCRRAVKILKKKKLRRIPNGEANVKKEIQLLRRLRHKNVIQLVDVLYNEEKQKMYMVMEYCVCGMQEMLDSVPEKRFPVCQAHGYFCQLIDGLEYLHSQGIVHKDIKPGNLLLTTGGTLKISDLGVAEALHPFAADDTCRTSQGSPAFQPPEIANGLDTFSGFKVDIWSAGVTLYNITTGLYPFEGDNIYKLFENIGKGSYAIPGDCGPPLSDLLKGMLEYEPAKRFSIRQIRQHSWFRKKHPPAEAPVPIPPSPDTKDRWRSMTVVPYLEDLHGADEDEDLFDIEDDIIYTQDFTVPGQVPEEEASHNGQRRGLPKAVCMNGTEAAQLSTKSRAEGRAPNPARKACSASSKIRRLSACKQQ

[2] = target: T2, Interleukin-1 receptor-associated kinase 3 (Homo sapiens) (UniProt Q9Y616); assay: Selectivity interaction (KinomeScan (DiscoverX)) EUB0000092b IRAK3; settings: at 10 µM
T2 sequence (whole entry): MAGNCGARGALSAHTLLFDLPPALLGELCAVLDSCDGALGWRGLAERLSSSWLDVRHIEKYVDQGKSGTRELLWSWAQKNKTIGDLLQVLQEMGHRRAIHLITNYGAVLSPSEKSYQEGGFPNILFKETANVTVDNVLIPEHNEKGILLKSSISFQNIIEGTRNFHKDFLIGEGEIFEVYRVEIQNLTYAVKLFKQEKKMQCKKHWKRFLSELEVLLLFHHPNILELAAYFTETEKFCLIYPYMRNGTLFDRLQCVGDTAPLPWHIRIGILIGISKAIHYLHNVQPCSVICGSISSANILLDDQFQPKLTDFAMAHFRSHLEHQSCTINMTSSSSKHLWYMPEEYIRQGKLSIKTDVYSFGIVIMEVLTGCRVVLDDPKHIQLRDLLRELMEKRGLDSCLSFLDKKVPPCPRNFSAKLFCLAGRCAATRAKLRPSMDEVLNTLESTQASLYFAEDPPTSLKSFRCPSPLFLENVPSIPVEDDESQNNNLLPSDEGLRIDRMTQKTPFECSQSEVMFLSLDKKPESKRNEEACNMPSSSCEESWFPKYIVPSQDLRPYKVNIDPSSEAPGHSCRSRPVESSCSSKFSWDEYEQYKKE

[3] = target: Calcium/calmodulin-dependent protein kinase kinase 2 (Homo sapiens) (UniProt Q96RR4); assay: Selectivity interaction (KinomeScan (DiscoverX)) EUB0000092b CAMKK2; settings: at 10 µM
Chain of Calcium/calmodulin-dependent protein kinase kinase 2 (Homo sapiens) (Q96RR4 2-588 limits assumed): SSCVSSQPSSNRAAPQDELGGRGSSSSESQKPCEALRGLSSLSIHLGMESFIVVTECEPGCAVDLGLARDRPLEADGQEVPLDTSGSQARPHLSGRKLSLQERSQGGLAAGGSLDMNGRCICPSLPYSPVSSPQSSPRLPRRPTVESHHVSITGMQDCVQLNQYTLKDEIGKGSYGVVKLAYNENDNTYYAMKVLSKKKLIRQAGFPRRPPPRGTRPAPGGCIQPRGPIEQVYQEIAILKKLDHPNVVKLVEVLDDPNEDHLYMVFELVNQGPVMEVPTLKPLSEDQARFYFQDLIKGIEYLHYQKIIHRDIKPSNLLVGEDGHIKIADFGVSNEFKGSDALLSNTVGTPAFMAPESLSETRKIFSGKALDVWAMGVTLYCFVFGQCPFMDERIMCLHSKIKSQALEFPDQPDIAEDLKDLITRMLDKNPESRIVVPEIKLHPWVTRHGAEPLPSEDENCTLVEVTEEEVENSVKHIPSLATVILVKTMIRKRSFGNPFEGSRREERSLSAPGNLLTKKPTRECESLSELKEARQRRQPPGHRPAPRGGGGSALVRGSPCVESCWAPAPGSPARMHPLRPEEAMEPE

[4] = target: Mitogen-activated protein kinase 9 (Homo sapiens, UniProt P45984); assay: Selectivity interaction (KinomeScan (DiscoverX)) EUB0001079a MAPK9; settings: at 1 µM
Chain of Mitogen-activated protein kinase 9 (P45984 whole entry, looked up): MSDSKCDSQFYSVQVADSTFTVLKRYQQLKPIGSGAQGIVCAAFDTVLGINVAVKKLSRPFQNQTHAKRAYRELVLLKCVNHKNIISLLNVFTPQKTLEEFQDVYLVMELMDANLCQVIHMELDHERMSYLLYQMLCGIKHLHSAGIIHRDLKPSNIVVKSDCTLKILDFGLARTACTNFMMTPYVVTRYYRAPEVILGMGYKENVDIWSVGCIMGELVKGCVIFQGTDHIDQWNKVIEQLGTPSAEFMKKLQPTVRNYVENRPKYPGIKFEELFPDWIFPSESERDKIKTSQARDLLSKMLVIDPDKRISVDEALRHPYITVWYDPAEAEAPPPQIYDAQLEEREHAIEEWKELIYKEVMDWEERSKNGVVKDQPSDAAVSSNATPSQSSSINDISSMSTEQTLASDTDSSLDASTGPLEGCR

[5] = system: eIF-2-alpha kinase GCN2 (Homo sapiens), Q9P2K8 [S808G]; settings: at 10 µM
Chain of eIF-2-alpha kinase GCN2 (Homo sapiens), Q9P2K8 [S808G] (Q9P2K8 whole entry S808G): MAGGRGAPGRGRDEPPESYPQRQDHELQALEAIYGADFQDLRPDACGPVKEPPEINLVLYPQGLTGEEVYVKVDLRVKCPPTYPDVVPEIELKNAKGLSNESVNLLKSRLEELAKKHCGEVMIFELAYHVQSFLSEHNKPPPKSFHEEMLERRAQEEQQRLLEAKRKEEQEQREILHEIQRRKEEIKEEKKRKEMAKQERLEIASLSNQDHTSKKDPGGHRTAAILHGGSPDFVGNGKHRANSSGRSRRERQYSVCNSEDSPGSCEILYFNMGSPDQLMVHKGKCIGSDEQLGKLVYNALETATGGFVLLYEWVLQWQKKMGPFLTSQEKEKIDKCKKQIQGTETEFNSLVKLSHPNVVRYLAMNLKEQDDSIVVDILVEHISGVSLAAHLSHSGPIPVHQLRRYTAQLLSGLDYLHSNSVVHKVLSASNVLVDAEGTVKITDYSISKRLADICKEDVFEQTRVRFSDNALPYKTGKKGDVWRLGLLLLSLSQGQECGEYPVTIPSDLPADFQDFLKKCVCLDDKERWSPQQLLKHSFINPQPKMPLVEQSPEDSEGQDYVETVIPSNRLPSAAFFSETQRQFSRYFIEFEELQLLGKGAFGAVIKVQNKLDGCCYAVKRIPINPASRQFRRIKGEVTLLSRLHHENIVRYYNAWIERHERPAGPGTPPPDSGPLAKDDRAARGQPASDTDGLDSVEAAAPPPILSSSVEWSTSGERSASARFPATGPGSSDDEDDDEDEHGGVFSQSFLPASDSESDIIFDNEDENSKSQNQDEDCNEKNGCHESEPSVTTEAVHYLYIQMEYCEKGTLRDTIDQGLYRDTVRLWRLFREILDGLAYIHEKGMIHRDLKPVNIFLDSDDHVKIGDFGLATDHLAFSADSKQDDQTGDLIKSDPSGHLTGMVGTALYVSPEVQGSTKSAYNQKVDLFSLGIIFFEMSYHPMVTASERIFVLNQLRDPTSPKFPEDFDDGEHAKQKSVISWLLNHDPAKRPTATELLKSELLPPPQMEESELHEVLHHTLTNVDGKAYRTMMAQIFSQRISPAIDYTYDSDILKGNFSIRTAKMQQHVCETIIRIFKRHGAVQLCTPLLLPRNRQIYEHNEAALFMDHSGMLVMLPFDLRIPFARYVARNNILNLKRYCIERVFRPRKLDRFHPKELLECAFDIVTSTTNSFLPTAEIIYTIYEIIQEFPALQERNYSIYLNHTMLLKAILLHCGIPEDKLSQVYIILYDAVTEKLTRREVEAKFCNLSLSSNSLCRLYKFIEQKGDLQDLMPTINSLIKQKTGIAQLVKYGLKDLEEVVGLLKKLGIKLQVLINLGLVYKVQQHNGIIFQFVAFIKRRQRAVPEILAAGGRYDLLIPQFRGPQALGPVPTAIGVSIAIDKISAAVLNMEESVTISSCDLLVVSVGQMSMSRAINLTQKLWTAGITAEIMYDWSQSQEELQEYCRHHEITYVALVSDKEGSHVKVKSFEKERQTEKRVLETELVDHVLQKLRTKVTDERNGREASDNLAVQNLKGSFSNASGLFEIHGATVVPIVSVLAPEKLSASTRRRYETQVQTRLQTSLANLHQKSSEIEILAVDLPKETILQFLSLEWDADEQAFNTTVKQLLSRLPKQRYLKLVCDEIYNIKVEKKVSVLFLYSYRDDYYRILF

[6] = target: T3, Mitogen-activated protein kinase kinase kinase 12 (Homo sapiens) (UniProt Q12852); assay: Selectivity interaction (KinomeScan (DiscoverX)) EUB0001049a MAP3K12; settings: at 1 µM
T3 sequence (whole entry): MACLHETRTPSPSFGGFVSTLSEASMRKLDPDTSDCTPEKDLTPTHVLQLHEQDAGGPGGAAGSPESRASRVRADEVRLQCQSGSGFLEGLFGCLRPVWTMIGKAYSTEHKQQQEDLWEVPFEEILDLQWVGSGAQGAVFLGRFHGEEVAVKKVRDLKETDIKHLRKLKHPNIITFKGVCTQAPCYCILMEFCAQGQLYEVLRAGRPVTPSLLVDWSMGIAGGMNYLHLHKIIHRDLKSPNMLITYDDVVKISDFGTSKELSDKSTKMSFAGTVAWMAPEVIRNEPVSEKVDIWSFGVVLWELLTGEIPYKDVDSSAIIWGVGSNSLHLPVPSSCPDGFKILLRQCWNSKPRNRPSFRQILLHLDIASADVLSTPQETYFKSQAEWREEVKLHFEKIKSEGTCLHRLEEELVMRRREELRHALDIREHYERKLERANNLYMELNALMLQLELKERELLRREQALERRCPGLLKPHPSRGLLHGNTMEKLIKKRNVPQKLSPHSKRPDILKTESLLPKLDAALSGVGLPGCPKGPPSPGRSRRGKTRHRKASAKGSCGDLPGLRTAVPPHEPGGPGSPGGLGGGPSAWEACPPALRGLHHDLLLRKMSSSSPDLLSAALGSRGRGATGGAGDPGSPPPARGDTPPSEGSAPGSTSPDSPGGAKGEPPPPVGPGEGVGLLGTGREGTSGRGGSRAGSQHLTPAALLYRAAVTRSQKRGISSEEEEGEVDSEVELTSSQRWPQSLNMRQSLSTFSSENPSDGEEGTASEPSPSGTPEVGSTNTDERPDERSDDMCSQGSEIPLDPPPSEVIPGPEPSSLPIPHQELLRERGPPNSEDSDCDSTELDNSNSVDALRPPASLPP

[7] = target: DNA (cytosine-5)-methyltransferase 3A (Homo sapiens) (UniProt Q9Y6K1); assay: Selectivity interaction (Methyltransferase screen (radiometric assays, panel of 8 PRMTs, 21 protein lysine methyltransferases, 3 DNA methyltransferases, and one RNA methyltransferase)) EUB0000271b DNMT3A
Chain of DNA (cytosine-5)-methyltransferase 3A (Homo sapiens) (Q9Y6K1 whole entry, looked up): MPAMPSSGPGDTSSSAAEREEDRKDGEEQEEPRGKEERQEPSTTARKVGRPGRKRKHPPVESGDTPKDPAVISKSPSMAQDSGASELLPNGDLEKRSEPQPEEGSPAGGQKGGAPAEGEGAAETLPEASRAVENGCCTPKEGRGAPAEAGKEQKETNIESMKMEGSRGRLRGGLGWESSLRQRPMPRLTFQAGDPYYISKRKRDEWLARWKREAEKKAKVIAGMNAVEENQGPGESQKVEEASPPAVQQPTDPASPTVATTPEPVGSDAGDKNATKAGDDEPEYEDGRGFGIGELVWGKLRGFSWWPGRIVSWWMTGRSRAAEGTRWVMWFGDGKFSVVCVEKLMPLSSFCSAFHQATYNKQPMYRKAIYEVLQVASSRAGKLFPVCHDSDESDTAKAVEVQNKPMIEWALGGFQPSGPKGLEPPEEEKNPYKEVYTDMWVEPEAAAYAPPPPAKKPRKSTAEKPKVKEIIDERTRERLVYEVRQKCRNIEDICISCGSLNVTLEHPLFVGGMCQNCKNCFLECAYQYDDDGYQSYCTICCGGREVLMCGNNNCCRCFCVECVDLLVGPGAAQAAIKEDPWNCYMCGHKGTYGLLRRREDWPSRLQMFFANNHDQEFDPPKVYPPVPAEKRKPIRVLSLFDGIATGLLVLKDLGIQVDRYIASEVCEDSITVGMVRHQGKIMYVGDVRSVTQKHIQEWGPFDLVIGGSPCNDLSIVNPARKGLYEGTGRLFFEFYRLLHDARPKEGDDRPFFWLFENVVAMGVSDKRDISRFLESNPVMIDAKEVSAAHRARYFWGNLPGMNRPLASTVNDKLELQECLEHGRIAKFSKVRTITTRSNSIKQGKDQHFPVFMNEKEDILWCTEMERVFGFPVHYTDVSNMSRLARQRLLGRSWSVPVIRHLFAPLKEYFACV

[8] = target: T4, Tyrosine-protein kinase TXK (Homo sapiens) (UniProt P42681); assay: Selectivity interaction (KinomeScan (DiscoverX)) EUB0000045b TXK
T4 sequence (whole entry): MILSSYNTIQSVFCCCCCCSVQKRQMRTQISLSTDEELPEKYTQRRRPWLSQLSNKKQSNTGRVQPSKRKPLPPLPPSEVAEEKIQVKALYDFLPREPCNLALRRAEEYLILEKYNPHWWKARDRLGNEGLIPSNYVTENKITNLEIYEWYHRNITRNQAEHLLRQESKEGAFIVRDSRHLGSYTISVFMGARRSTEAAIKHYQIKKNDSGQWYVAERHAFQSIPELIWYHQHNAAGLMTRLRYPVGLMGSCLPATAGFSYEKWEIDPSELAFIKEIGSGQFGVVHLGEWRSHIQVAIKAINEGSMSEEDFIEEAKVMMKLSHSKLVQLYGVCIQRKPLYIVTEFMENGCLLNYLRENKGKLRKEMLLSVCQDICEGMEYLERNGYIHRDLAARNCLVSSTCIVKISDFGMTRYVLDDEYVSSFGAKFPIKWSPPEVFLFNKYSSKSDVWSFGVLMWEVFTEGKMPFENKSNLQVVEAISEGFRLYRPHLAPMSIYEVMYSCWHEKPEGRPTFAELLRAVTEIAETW

[9] = target: Serine/threonine-protein kinase Chk2 (Homo sapiens) (UniProt O96017); assay: Selectivity interaction (KinomeScan (DiscoverX)) EUB0001619a CHEK2; settings: at 1 µM
Chain of Serine/threonine-protein kinase Chk2 (Homo sapiens) (O96017 whole entry): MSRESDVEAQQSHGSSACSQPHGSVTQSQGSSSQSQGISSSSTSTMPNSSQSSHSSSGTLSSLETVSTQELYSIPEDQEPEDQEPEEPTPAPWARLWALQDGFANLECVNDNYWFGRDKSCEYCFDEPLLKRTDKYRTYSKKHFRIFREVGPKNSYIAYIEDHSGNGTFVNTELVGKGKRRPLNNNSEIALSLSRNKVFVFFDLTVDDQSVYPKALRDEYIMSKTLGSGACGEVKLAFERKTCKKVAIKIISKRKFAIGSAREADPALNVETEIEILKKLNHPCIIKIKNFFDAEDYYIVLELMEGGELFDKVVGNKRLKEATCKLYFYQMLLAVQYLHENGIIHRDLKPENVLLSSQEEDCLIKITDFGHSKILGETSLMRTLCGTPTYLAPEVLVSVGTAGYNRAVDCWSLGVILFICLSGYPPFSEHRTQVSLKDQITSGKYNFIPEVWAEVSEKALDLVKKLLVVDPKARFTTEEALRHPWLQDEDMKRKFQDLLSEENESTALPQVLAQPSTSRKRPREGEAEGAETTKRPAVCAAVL

Question: Which % of control [1] does the source give for `CCN(CC)CCCCNc1ncc2cc(-c3cc(OC)cc(OC)c3)c(NC(=O)NC(C)(C)C)nc2n1` here?
Answer: 100%

Question: For `CCC(=O)N1CCN(c2ccc(-n3c(=O)ccc4cnc5ccc(-c6cnc7ccccc7c6)cc5c43)cc2C(F)(F)F)CC1`, which % of control [2] is on record?
Answer: 27%

Question: What about the % of control [3] of the same compound?
Answer: 85%

Question: Which % of control [4] does the source give for `Nc1cnc(N2CCc3cc(S(=O)(=O)Nc4c(F)cc(Cl)cc4F)cc(N4CCCC4=O)c32)nc1` [TP-020n] here?
Answer: 84%

Question: How did the % of control [5] turn out when `Cc1cc([C@@H](C)Nc2ccccc2C(=O)O)c2nc(N3CCOCC3)cc(=O)n2c1` [AZD-6482] was run?
Answer: 100%

Question: For `COc1cc(Nc2nc(C)cc(-c3cnn4nc(OC)ccc34)n2)cc(C(F)(F)F)c1`, which % of control [6] is on record?
Answer: 92%

Question: `Cc1cc(C)cc([C@@H]2c3cc(C)ccc3NC(=O)CN2C(=O)c2ccc(Br)s2)c1` was tested. Which % of activity ([7]; at 1 µM) did it give?
Answer: 99%

Question: What about the % of activity ([7]; at 10 µM) of the same compound?
Answer: 99%

Question: `C=CC(=O)Nc1cc(-n2c(=O)ccc3cnc4ccc(-c5ccc(NS(C)(=O)=O)cc5)cc4c32)ccc1C` was tested. Which % of control ([8]; at 1 µM) did it give?
Answer: 25%

Question: And the % of control ([8]; at 10 µM)?
Answer: 2.6%

Question: Which % of control [9] does the source give for `N#Cc1cccc(-c2c[nH]c3ncnc(N4CCOCC4)c23)c1` here?
Answer: 100%
